Assay [1] deals with human A1 adenosine receptor (Homo sapiens (Human), UniProt P30542). Put plainly: Inhibition of forskolin-stimulated adenylyl cyclase activity via A1 receptor. Type of assay: biochemical. The following applies: membranes of CHO cells stably transfected with human A1 receptor. As for the experimental part:
(§1) The A1 and A3 receptor-mediated inhibition of forskolin-stimulated adenylyl cyclase activity was tested in membranes prepared from CHO cells stably transfected with the human A1 and A3 adenosine receptors. The A2a and A2b receptor-mediated stimulation of basal cyclase activity was tested in membranes prepared from CHO cells stably transfected with the human A2a and […] adenosine receptors
(§2) Adenylyl Cyclase Inhibition Via Human Adenosine A1 and A3 Receptors

The nature of assay [2]: Clinical study: single topical ocular dose, intraocular pressure in adults with OHT or POAG. Type of assay: in vivo, human. The following applies: for IOP difference from the placebo response: 2 hours postdose. From the text:
The clinical study described herein is a multi-center, randomized, double-blind, placebo-controlled, dose-escalation study of a single topical ocular application of the study drug (i.e., Compound A or placebo) to the one study eye of adults with OHT or POAG. The “study eye” was defined as the eye with the higher mean IOP, recorded between 7:00 and 8:00 AM on the day prior to dosing (Day 0).
The adult subjects were sequentially assigned to 1 of 7 treatment groups.
Masked-intraocular pressures were determined in duplicate with a Goldmann tonometer following traditional corneal anesthesia. […] Subsequent bilateral external eye examinations and masked-IOP determinations were performed at 9:00 AM, 10:00 AM, 12:00 noon, and 2:00 PM (each ±5 minutes), corresponding to 1, 2, 4, and 6 hours post study drug application. In addition in the 700 mcg cohort an IOP determination was performed at 6:00 PM (18:00), corresponding to 10 hours post study drug application.
The study drug was only administered to one eye per subject (the study eye). Dosages ranged from 2.5 micrograms to 350 micrograms per 50 microliter drop, per respective treatment group. A board-certified ophthalmologist (or comparably trained designee) administered the study drug. Randomized enrollment of subjects into each successive treatment groups was predicated upon the review and approval of the safety data from the completed treatment groups by the Safety Research Committee, consisting of three qualified physicians (i.e., an internist, cardiologist, and ophthalmologist).

Assay [3] has as its target A2A adenosine receptor (Homo sapiens (Human), UniProt P29274). As to the kind of experiment: Adenosine receptor binding selectivity A1 > A2A. To be noted: ratio of Ki values. As to the method: (§3) As used herein, the term “selective adenosine A1 agonist” means an A1 agonist that has a high affinity to the A1 receptor while simultaneously having a low affinity for the A2 and A3 adenosine receptors.
(§4) Membranes for radioligand binding experiments are prepared from fresh or frozen cells as described in Klotz et al., Naunyn-Schmiedeberg's Arch. […] The cell suspension is then homogenized in ice-cold hypotonic buffer (5 mM Tris/HCl, 2 mM EDTA, pH 7.4) and the homogenate is spun for 10 minutes (4° C.) at 1,000 g.
(§5) Nonspecific binding is determined in the presence of 100 μM R-PM and 1 mM theophylline, respectively. For details see Klotz et al., Naunyn-Schmiedeberg's Arch.

Assay [4] has as its target T1, A3 adenosine receptor (Homo sapiens (Human), UniProt P0DMS8). As to the kind of experiment: Adenosine receptor binding selectivity A1 > A3. The following applies: ratio of Ki values. As for the experimental part:
as §3, §4, §5

The target in assay [5] is T1, A3 adenosine receptor. As to the kind of experiment: Inhibition of forskolin-stimulated adenylyl cyclase activity via A3 receptor. Type of assay: biochemical. To be noted: membranes of CHO cells stably transfected with human A3 receptor. As for the experimental part: as §1, §2

T1 sequence (P0DMS8 whole entry): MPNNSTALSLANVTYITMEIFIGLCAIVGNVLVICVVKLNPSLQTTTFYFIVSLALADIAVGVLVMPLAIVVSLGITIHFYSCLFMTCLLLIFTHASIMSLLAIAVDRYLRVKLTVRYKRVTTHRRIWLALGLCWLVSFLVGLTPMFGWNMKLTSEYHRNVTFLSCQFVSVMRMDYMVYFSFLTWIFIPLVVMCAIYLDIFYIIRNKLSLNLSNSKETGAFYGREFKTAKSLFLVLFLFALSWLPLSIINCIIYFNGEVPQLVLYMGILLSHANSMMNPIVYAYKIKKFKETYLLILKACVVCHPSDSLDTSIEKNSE
Sequence of A2A adenosine receptor (P29274 whole entry): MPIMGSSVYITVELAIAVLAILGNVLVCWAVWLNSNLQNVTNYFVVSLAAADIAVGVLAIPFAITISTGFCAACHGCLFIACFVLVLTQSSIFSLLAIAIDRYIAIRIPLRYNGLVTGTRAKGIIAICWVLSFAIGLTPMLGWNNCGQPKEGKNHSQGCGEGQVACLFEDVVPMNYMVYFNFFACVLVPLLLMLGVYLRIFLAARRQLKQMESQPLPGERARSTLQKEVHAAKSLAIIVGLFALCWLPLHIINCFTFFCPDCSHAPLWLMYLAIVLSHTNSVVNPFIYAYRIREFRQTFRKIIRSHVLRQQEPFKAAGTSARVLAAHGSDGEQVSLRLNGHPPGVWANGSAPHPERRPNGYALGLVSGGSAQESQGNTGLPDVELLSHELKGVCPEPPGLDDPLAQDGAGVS
Sequence of human A1 adenosine receptor (P30542 whole entry): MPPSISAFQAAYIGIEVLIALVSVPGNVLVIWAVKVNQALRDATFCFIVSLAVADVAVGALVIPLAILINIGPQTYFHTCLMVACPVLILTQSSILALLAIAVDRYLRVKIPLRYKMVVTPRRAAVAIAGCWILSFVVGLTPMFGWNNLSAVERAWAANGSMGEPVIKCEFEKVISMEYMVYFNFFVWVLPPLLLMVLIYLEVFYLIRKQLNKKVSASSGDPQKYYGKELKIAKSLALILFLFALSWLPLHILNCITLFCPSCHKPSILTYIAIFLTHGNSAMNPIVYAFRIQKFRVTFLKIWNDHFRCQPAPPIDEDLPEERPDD

For `O=[N+]([O-])OC[C@H]1O[C@@H](n2cnc3c(NC4CCCC4)ncnc32)[C@H](O)[C@@H]1O` [Compound A, ((2R,3S,4R,5R)-5-(6-(cyclopentylamino)-9H-purin-9-yl)-3,4-dihydroxytetrahydrofuran-2-yl)methyl nitrate], the 50% effective concentration (EC50) in assay [1] came out at 17 nM. For the same compound, the “IOP difference from the placebo response” value in assay [2] (350 mcg treatment group) and in assay [2] (700 mcg treatment group) was “Statistically significant differences from the placebo response” each time. In assay [2] (350 mcg treatment group, entire observation period), the “duration of the decrease in IOP” value was ~6 h. Moreover, in assay [2] (across 7 dose groups), the “dose group with % of subjects achieving greatest IOP decrement (responder analysis)” value came out at 350 µg. Moreover, in assay [2] (across 7 dose groups 2.5-700 mcg), the “dose with largest mean and median decreases in IOP” value is 350 µg. In addition, the “decrement in IOP from the Day 1 pre-dose baseline” value in assay [2] (single topical ocular dose 2.5-700 mcg, study eye, OHT or POAG) is reported as “Dose-related decrement in IOP”. Besides, the “responder analysis: subjects with categorical mean IOP decreases from baseline of ≧10%, ≧15% or ≧20%” value in assay [2] (throughout the observation period (~6 hrs)) is “showed a dose-response”. In addition, in assay [2] (topical ocular doses, human subjects), the “time post-dose of largest difference in IOP between drug-treated and placebo-treated eyes” value was “approximately 2 hours”.

`O=S(=O)([O-])OC[C@H]1O[C@@H](n2cnc3c(NC4CCCC4)ncnc32)[C@H](O)[C@@H]1O.[Na+]` [Compound C, sodium ((2R,3S,4R,5R)-5-(6-(cyclopentylamino)-9H-purin-9-yl)-3,4-dihydroxytetrahydrofuran-2-yl)methyl sulfate]: in assay [3], the “A1 > A2A SELECTIVITY [KiA2(nm)/KiA1(nm)]” value amounted to 2250. Moreover, in assay [4], the “A1 > A3 SELECTIVITY [KiA3(nm)/KiA1(nm)]” value was 251.

As for `O=[N+]([O-])OC[C@H]1O[C@@H](n2cnc3c(NC4CCOC4)ncnc32)[C@H](O)[C@@H]1O` (stereo partly drawn) [Compound D, ((2R,3S,4R,5R)-3,4-dihydroxy-5-(6-(tetrahydrofuran-3-ylamino)-9H-purin-9-yl)tetrahydrofuran-2-yl)methyl nitrate], the “A1 > A2A SELECTIVITY [KiA2(nm)/KiA1(nm)]” value in assay [3] is recorded as >9434. In addition, the “A1 > A3 SELECTIVITY [KiA3(nm)/KiA1(nm)]” value in assay [4] came to 202.

Take `O=[N+]([O-])OC[C@H]1O[C@@H](n2cnc3c(NC4CCCCC4)ncnc32)[C@H](O)[C@@H]1O` [Compound E, ((2R,3S,4R,5R)-5-(6-(cyclohexylamino)-9H-purin-9-yl)-3,4-dihydroxytetrahydrofuran-2-yl)methyl nitrate]: the “A1 > A2A SELECTIVITY [KiA2(nm)/KiA1(nm)]” value in assay [3] was 878. The half-maximal effective concentration (EC50) in assay [5] was > 100000 nM; in assay [1] it was 29 nM. Moreover, in assay [4], the “A1 > A3 SELECTIVITY [KiA3(nm)/KiA1(nm)]” value is reported as 1098.

For `O=[N+]([O-])OC[C@H]1O[C@@H](n2cnc3c(NC4CC5CCC4C5)ncnc32)[C@H](O)[C@@H]1O` (stereo partly drawn) [Compound F, ((2R,3S,4R,5R)-5-(6-(bicycle-[2.2.1]-heptan-2-ylamino)-9H-purin-9-yl)-3,4-dihydroxytetrahydrofuran-2-yl)methyl nitrate], the “A1 > A2A SELECTIVITY [KiA2(nm)/KiA1(nm)]” value in assay [3] was 3945. Moreover, in assay [4], the “A1 > A3 SELECTIVITY [KiA3(nm)/KiA1(nm)]” value came to 260.

In the case of `O=S(=O)([O-])OC[C@H]1O[C@@H](n2cnc3c(NC4CCCCC4)nc(Cl)nc32)[C@H](O)[C@@H]1O.[Na+]` [Compound G, sodium ((2R,3S,4R,5R)-5-(2-chloro-6-(cyclohexylamino)-9H-purin-9-yl)-3,4-dihydroxytetrahydrofuran-2-yl)methyl sulfate], the “A1 > A2A SELECTIVITY [KiA2(nm)/KiA1(nm)]” value in assay [3] is reported as 200. Besides, the half-maximal effective concentration (EC50) was > 100000 nM in assay [5] and 19 nM in assay [1]. For the same compound, the “A1 > A3 SELECTIVITY [KiA3(nm)/KiA1(nm)]” value in assay [4] turned out to be 130.

For orientation: EC50 means the midpoint of the concentration-response curve. High values mean a less potent agent, low ones a more potent agent.

The values are drawn from patent US8470800B2, “Method of reducing intraocular pressure in humans” (Inotek Pharmaceuticals Corporation, priority 2009, dated 2013).
